Data: a compilation of properties of binary mixtures (doi:10.1007/s10953-020-00967-3)

Assay: xn = mol fraction of the nth substance listed
Details: 101 kPa

`CN(C)C=O` + CCCC[n+]1ccn(C)c1.F[B-](F)(F)F showed a viscosity (293.15 K, x2 = 0) of 0.88 mPa·s, a viscosity (298.15 K, x2 = 0) of 0.83 mPa·s and a viscosity (303.15 K, x2 = 0) of 0.78 mPa·s. The viscosity (308.15 K, x2 = 0) was 0.74 mPa·s, the viscosity (313.15 K, x2 = 0) was 0.7 mPa·s and the viscosity (318.15 K, x2 = 0) was 0.67 mPa·s. For the same molecule, the viscosity (323.15 K, x2 = 0) was 0.63 mPa·s.

`CCCC[n+]1ccn(C)c1.F[B-](F)(F)F` + CN(C)C=O gave a viscosity (293.15 K, x1 = 0.16) of 5.71 mPa·s, a viscosity (293.15 K, x1 = 0.24) of 9 mPa·s and a viscosity (293.15 K, x1 = 0.34) of 13.7 mPa·s. The viscosity (293.15 K, x1 = 0.43) was 18.4 mPa·s, the viscosity (293.15 K, x1 = 0.55) was 26.7 mPa·s and the viscosity (293.15 K, x1 = 0.65) was 38.3 mPa·s. It also gave a viscosity (293.15 K, x1 = 0.74) of 55.2 mPa·s, a viscosity (293.15 K, x1 = 0.83) of 77 mPa·s and a viscosity (293.15 K, x1 = 0.94) of 105 mPa·s. The viscosity (293.15 K, x1 = 1) was 125 mPa·s, the viscosity (298.15 K, x1 = 0.08) was 2.56 mPa·s and the viscosity (298.15 K, x1 = 0.16) was 3.95 mPa·s. It also gave a viscosity (298.15 K, x1 = 0.24) of 5.82 mPa·s, a viscosity (298.15 K, x1 = 0.34) of 8.9 mPa·s and a viscosity (298.15 K, x1 = 0.43) of 12.1 mPa·s. It also gave a viscosity (298.15 K, x1 = 0.55) of 17.7 mPa·s, a viscosity (298.15 K, x1 = 0.65) of 27.6 mPa·s and a viscosity (298.15 K, x1 = 1) of 105 mPa·s. It also gave a viscosity (303.15 K, x1 = 0.08) of 2.3 mPa·s, a viscosity (303.15 K, x1 = 0.16) of 3.21 mPa·s and a viscosity (303.15 K, x1 = 0.24) of 4.17 mPa·s. The viscosity (303.15 K, x1 = 0.34) was 6.22 mPa·s, the viscosity (303.15 K, x1 = 0.43) was 8 mPa·s and the viscosity (303.15 K, x1 = 0.55) was 12.7 mPa·s. The viscosity (303.15 K, x1 = 0.65) was 20.7 mPa·s, the viscosity (303.15 K, x1 = 0.74) was 33.6 mPa·s and the viscosity (303.15 K, x1 = 0.83) was 51.9 mPa·s. It also gave a viscosity (303.15 K, x1 = 1) of 88 mPa·s, a viscosity (308.15 K, x1 = 0.08) of 2.27 mPa·s and a viscosity (308.15 K, x1 = 0.16) of 3.29 mPa·s. The viscosity (308.15 K, x1 = 0.24) was 3.9 mPa·s, the viscosity (308.15 K, x1 = 0.34) was 4.65 mPa·s and the viscosity (308.15 K, x1 = 0.55) was 9.6 mPa·s. It also gave a viscosity (308.15 K, x1 = 0.65) of 16 mPa·s, a viscosity (308.15 K, x1 = 0.74) of 26.2 mPa·s and a viscosity (308.15 K, x1 = 0.83) of 42.4 mPa·s. It also gave a viscosity (308.15 K, x1 = 0.94) of 61.9 mPa·s, a viscosity (308.15 K, x1 = 1) of 72 mPa·s and a viscosity (313.15 K, x1 = 0.08) of 1.95 mPa·s. The viscosity (313.15 K, x1 = 0.24) was 2.61 mPa·s, the viscosity (313.15 K, x1 = 0.34) was 2.49 mPa·s and the viscosity (313.15 K, x1 = 0.43) was 2.98 mPa·s. It also gave a viscosity (313.15 K, x1 = 0.55) of 5.74 mPa·s, a viscosity (313.15 K, x1 = 0.65) of 10.4 mPa·s and a viscosity (313.15 K, x1 = 0.83) of 32.6 mPa·s. It also gave a viscosity (313.15 K, x1 = 0.94) of 49.3 mPa·s, a viscosity (313.15 K, x1 = 1) of 57.7 mPa·s and a viscosity (318.15 K, x1 = 0.16) of 1.84 mPa·s. For the same molecule, the viscosity (318.15 K, x1 = 0.24) was 1.59 mPa·s, the viscosity (318.15 K, x1 = 0.34) was 0.55 mPa·s and the viscosity (318.15 K, x1 = 0.65) was 5.23 mPa·s. The viscosity (318.15 K, x1 = 0.83) was 23.6 mPa·s, the viscosity (318.15 K, x1 = 0.94) was 37.5 mPa·s and the viscosity (318.15 K, x1 = 1) was 44 mPa·s. For the same molecule, the viscosity (323.15 K, x1 = 0.16) was 1.63 mPa·s, the viscosity (323.15 K, x1 = 0.24) was 1.88 mPa·s and the viscosity (323.15 K, x1 = 0.34) was 1.38 mPa·s. It also gave a viscosity (323.15 K, x1 = 0.43) of 0.75 mPa·s, a viscosity (323.15 K, x1 = 0.55) of 0.5 mPa·s and a viscosity (323.15 K, x1 = 0.65) of 2.3 mPa·s. It also gave a viscosity (323.15 K, x1 = 0.83) of 15.9 mPa·s and a viscosity (323.15 K, x1 = 1) of 31.6 mPa·s.
